Legend:
[1] = logP determination by HPLC on reversed-phase column (EEC Directive 79/831 Annex V.A8); type: physicochemical; conditions: acidic range (pH 2.3), marked a), 0.1% aqueous phosphoric acid/acetonitrile gradient, reversed-phase C 18, 43° C.; for chromatographic logP: reversed-phase C18 HPLC column
Procedure: The logP values given in the table were determined in accordance with EEC Directive 79/831 Annex V.A8 by HPLC (High Performance Liquid Chromatography) on a reversed-phase column (C 18). Temperature: 43° C. (a) Mobile phases for the determination in the acidic range (pH 2.3): 0.1% aqueous phosphoric acid, acetonitrile; linear gradient from 10% acetonitrile to 90% acetonitrile—the corresponding measurement results in table 1 are marked a). (b) Mobile phases for the determination in the neutral range (pH 7.5): 0.01-molar aqueous phosphate buffer solution, acetonitrile; linear gradient from 10% acetonitrile to 90% acetonitrile—the corresponding measurement results in table 1 are marked b). Calibration was carried out using unbranched alkan-2-ones (having 3 to 16 carbon atoms) with known logP values (determination of the logP values by the retention times using linear interpolation between two successive alkanones).

[2] = test system: greenhouse red spidermite (Tetranychus urticae); experiment: Tetranychus test (OP-resistant/spray treatment); type: in vivo; conditions: for pest or weed control at 500 g/ha / pest or weed control at 100 g/ha: Tetranychus urticae, 120 h, after 5 d, OP-resistant, spray treatment, read-out: Kill rate in % after 5 d; for pest or weed control at 500 g/ha: active compound concentration 500 g/ha; for activity (kill of spidermites): bean leaf disks infested by all stages of Tetranychus urticae (OP-resistant), sprayed, result in words; for pest or weed control at 100 g/ha: active compound concentration 100 g/ha
Procedure: Tetranychus Test (OP-Resistant/Spray Treatment)
To produce a suitable preparation of active compound, 1 part by weight of active compound is mixed with the stated amounts of solvents and emulsifier, and the concentrate is diluted with emulsifier-containing water to the desired concentration.
Disks of bean leaves (Phaseolus vulgaris) which are infested by all stages of the greenhouse red spidermite (Tetranychus urticae) are sprayed with a preparation of active compound of the desired concentration.
After the desired period of time, the activity in % is determined. 100% means that all spidermites have been killed; 0% means that none of the spidermites have been killed.

[3] = test system: larvae of the mustard beetle (Phaedon cochleariae); experiment: Phaedon test (spray treatment); type: in vivo; conditions: for activity (kill of beetle larvae): Chinese cabbage disks sprayed, populated with Phaedon cochleariae larvae, result in words; for pest or weed control at 500 g/ha / pest or weed control at 100 g/ha: Phaedon cochleariae, 168 h, after 7 d, spray treatment, read-out: Kill rate in % after 7 d; for pest or weed control at 500 g/ha: active compound concentration 500 g/ha; for pest or weed control at 100 g/ha: active compound concentration 100 g/ha
Procedure: Phaedon Test (Spray Treatment) [table] To produce a suitable preparation of active compound, 1 part by weight of active compound is mixed with the stated amounts of solvents and emulsifier, and the concentrate is diluted with emulsifier-containing water to the desired concentration. Disks of Chinese cabbage (Brassica pekinensis) are sprayed with a preparation of active compound of the desired concentration and, once they have dried, populated with larvae of the mustard beetle (Phaedon cochleariae). After the desired period of time, the activity in % is determined. 100% means that all beetle larvae have been killed; 0% means that none of the beetle larvae have been killed.

[4] = test system: caterpillars of the armyworm (Spodoptera frugiperda); experiment: Spodoptera frugiperda test (spray treatment); type: in vivo; conditions: for pest or weed control at 500 g/ha / pest or weed control at 100 g/ha: Spodoptera frugiperda, 168 h, after 7 d, spray treatment, read-out: Kill rate in % after 7 d; for pest or weed control at 500 g/ha: active compound concentration 500 g/ha; for activity (kill of caterpillars): corn leaf disks sprayed, populated with Spodoptera frugiperda caterpillars, result in words; for pest or weed control at 100 g/ha: active compound concentration 100 g/ha
Procedure: Spodoptera Frugiperda Test (Spray Treatment) [table] To produce a suitable preparation of active compound, 1 part by weight of active compound is mixed with, the stated amounts of solvents and emulsifier, and the concentrate is diluted with emulsifier-containing water to the desired concentration. Disks of corn leaves (Zea mays) are sprayed with a preparation of active compound of the desired concentration and, after they have dried, populated with caterpillars of the armyworm (Spodoptera frugiperda). After the desired period of time, the activity in % is determined. 100% means that all caterpillars have been killed; 0% means that none of the caterpillars have been killed.

## CC(C)CC1=NN(C(=S)Nc2ccc(OC(F)(F)F)cc2)C(O)(C(F)(F)F)C1 (centres unmarked) [Example 22]
[1]
  chromatographic logP: 4.42
[2]
  pest or weed control at 500 g/ha: 90%
  activity (kill of spidermites): good activity

## COc1ccccc1NC(=S)N1N=C(C(C)C)CC1(O)C(F)(F)F (centres unmarked) [Example 30]
[1]
  chromatographic logP: 4.23
[3]
  activity (kill of beetle larvae): good activity
  pest or weed control at 500 g/ha: 100%
[2]
  pest or weed control at 500 g/ha: 90%
  activity (kill of spidermites): good activity

## Cc1ccccc1NC(=S)N1N=C(C(C)C)CC1(O)C(F)(F)F (centres unmarked) [Example 32]
[1]
  chromatographic logP: 4.1
[3]
  activity (kill of beetle larvae): good activity
  pest or weed control at 500 g/ha: 100%
[4]
  pest or weed control at 500 g/ha: 100%
  activity (kill of caterpillars): good activity

## CCC1=NN(C(=S)Nc2ccc(Cl)cc2)C(O)(C(F)(F)F)C1 (centres unmarked) [Example 53]
[1]
  chromatographic logP: 4.07
[3]
  activity (kill of beetle larvae): good activity
  pest or weed control at 500 g/ha: 100%

## CCC1=NN(C(=S)NCc2ccccc2Cl)C(O)(C(F)(F)F)C1 (centres unmarked) [Example 56]
[1]
  chromatographic logP: 4.25
[3]
  activity (kill of beetle larvae): good activity
  pest or weed control at 500 g/ha: 100%
[2]
  pest or weed control at 100 g/ha: 90%
  activity (kill of spidermites): good activity

## CC(C)(C)C1=NN(C(=S)Nc2ccccc2)C(O)(C(F)(F)F)C1 (centres unmarked) [Example 63]
[1]
  chromatographic logP: 4.26
[3]
  activity (kill of beetle larvae): good activity
  pest or weed control at 100 g/ha: 100%
[4]
  pest or weed control at 100 g/ha: 100%
  activity (kill of caterpillars): good activity

## CC(C)(C)C1=NN(C(=S)Nc2ccc(OC(F)(F)F)cc2)C(O)(C(F)(F)F)C1 (centres unmarked) [Example 64]
[1]
  chromatographic logP: 4.94
[3]
  activity (kill of beetle larvae): good activity
  pest or weed control at 100 g/ha: 100%
[4]
  pest or weed control at 100 g/ha: 100%
  activity (kill of caterpillars): good activity

## CC(C)(C)C1=NN(C(=S)NC2CCCCC2)C(O)(C(F)(F)F)C1 (centres unmarked) [Example 73]
[3]
  activity (kill of beetle larvae): good activity
  pest or weed control at 100 g/ha: 100%
[4]
  pest or weed control at 100 g/ha: 100%
  activity (kill of caterpillars): good activity

## OC1(C(F)(F)F)CC(c2ccccc2)=NN1C(=S)Nc1ccc(Cl)cc1 (centres unmarked) [Example 83]
[1]
  chromatographic logP: 4.58
[4]
  pest or weed control at 500 g/ha: 100%
  activity (kill of caterpillars): good activity

## CCC1=NN(C(=S)Nc2cccc(F)c2)C(O)(C(F)(F)F)C1 (centres unmarked) [Example 94]
[1]
  logP: logP = 3.71^a)

## CCC1=NN(C(=S)Nc2ccc(OC(F)(F)F)cc2)C(O)(C(F)(F)F)C1 (centres unmarked) [Example 95]
[1]
  logP: logP = 4.31^a)

## CCC1=NN(C(=S)Nc2ccc(Cl)c(Cl)c2)C(O)(C(F)(F)F)C1 (centres unmarked) [Example 96]
[1]
  logP: logP = 4.61^a)

## CCC1=NN(C(=O)NCc2ccc(Cl)c(Cl)c2)C(O)(C(F)(F)F)C1 (centres unmarked) [Example 97]
[1]
  logP: logP = 4.34^a)

## CCC1=NN(C(=S)Nc2ccccc2F)C(O)(C(F)(F)F)C1 (centres unmarked) [Example 98]
[1]
  logP: logP = 3.51^a)

## CCC1=NN(C(=S)Nc2ccc(C(C)(C)C)cc2)C(O)(C(F)(F)F)C1 (centres unmarked) [Example 99]
[1]
  logP: logP = 4.85^a)

## COc1ccc(NC(=S)N2N=C(C)CC2(O)C(F)(F)F)cc1 (centres unmarked) [Example 102]
[1]
  logP: logP = 3.10^a)

## CC1=NN(C(=S)Nc2cccc(Cl)c2Cl)C(O)(C(F)(F)F)C1 (centres unmarked) [Example 103]
[1]
  logP: logP = 3.75^a)

## CC1=NN(C(=S)Nc2ccc(Oc3ccccc3)cc2)C(O)(C(F)(F)F)C1 (centres unmarked) [Example 104]
[1]
  logP: logP = 4.15^a)

## CC1=NN(C(=S)Nc2c(F)cc(F)cc2F)C(O)(C(F)(F)F)C1 (centres unmarked) [Example 105]
[1]
  logP: logP = 3.12^a)

## CC1=NN(C(=S)Nc2ccc(OC(F)(F)F)cc2)C(O)(C(F)(F)F)C1 (centres unmarked) [Example 106]
[1]
  chromatographic logP: 3.37
[2]
  pest or weed control at 100 g/ha: 100%
  activity (kill of spidermites): good activity

## CC1=NN(C(=S)Nc2cc(C(F)(F)F)ccc2Cl)C(O)(C(F)(F)F)C1 (centres unmarked) [Example 107]
[1]
  logP: logP = 3.94^a)

## COc1ccccc1NC(=S)N1N=C(C)CC1(O)C(F)(F)F (centres unmarked) [Example 108]
[1]
  logP: logP = 3.36^a)

## CC1=NN(C(=S)Nc2cc(Cl)cc(Cl)c2)C(O)(C(F)(F)F)C1 (centres unmarked) [Example 109]
[1]
  logP: logP = 4.18^a)

## CC1=NN(C(=S)Nc2ccc(F)cc2)C(O)(C(F)(F)F)C1 (centres unmarked) [Example 110]
[1]
  logP: logP = 2.06^a)

## CC1=NN(C(=S)Nc2cccc(F)c2)C(O)(C(F)(F)F)C1 (centres unmarked) [Example 111]
[1]
  logP: logP = 3.18^a)

## CC1=NN(C(=S)Nc2ccc(OC(F)(F)F)cc2)C(O)(C(F)(F)F)C1 (centres unmarked) [Example 112]
[1]
  logP: logP = 3.89^a)

## CC1=NN(C(=S)NCc2ccc(Cl)c(Cl)c2)C(O)(C(F)(F)F)C1 (centres unmarked) [Example 113]
[1]
  logP: logP = 4.26^a)

## CC1=NN(C(=O)Nc2ccc(Cl)c(Cl)c2)C(O)(C(F)(F)F)C1 (centres unmarked) [Example 116]
[1]
  logP: logP = 3.84^a)

## CC1=NN(C(=O)Nc2ccc(F)cc2)C(O)(C(F)(F)F)C1 (centres unmarked) [Example 117]
[1]
  logP: logP = 2.70^a)

## CC1=NN(C(=S)Nc2ccc(Cl)cc2Cl)C(O)(C(F)(F)F)C1 (centres unmarked) [Example 118]
[1]
  chromatographic logP: 3.97
[2]
  pest or weed control at 100 g/ha: 90%
  activity (kill of spidermites): good activity

## CC1=NN(C(=S)Nc2ccc(C)cc2)C(O)(C(F)(F)F)C1 (centres unmarked) [Example 119]
[1]
  logP: logP = 3.49^a)

## CC1=NN(C(=S)Nc2ccccc2F)C(O)(C(F)(F)F)C1 (centres unmarked) [Example 120]
[1]
  logP: logP = 3.05^a)

## CC1=NN(C(=S)Nc2ccc(C(C)(C)C)cc2)C(O)(C(F)(F)F)C1 (centres unmarked) [Example 121]
[1]
  logP: logP = 4.45^a)

## CC1=NN(C(=S)NCc2ccccc2F)C(O)(C(F)(F)F)C1 (centres unmarked) [Example 124]
[1]
  logP: logP = 3.53^a)

## CC1=NN(C(=S)NCc2ccccc2Cl)C(O)(C(F)(F)F)C1 (centres unmarked) [Example 125]
[1]
  logP: logP = 3.87^a)

## CC1=NN(C(=S)NCCc2ccc(Cl)cc2)C(O)(C(F)(F)F)C1 (centres unmarked) [Example 126]
[1]
  chromatographic logP: 4.24
[2]
  pest or weed control at 100 g/ha: 90%
  activity (kill of spidermites): good activity

## CC(C)(C)C1=NN(C(=S)Nc2ccc(Cl)cc2)C(O)(C(Cl)(Cl)Cl)C1 (centres unmarked) [Example 129]
[1]
  logP: logP = 4.03^a)

## CC(C)(C)C1=NN(C(=S)NCc2ccc(Cl)cc2)C(O)(C(Cl)(Cl)Cl)C1 (centres unmarked) [Example 130]
[1]
  logP: logP = 2.72^a)

## CC(C)(C)C1=NN(C(=S)NCc2ccc(Cl)cc2)C(O)(C(F)(F)C(F)(F)F)C1 (centres unmarked) [Example 132]
[1]
  logP: logP = 5.32^a)

## CC(C)(C)C1=NN(C(=O)Nc2ccc(Cl)cc2)C(O)(C(F)(F)C(F)(F)F)C1 (centres unmarked) [Example 134]
[1]
  logP: logP = 4.77^a)

## CC(C)(C)C1=NN(C(=S)Nc2ccc(Cl)cc2)C(O)(C(F)(F)C(F)(F)F)C1 (centres unmarked) [Example 135]
[1]
  logP: logP = 5.19^a)

## CC(C)(C)C1=NN(C(=S)Nc2ccc(Cl)cc2)C(O)(C(F)(F)C(F)(F)C(F)(F)F)C1 (centres unmarked) [Example 138]
[1]
  logP: logP = 5.57^a)

## CC(C)(C)C1=NN(C(=O)Nc2ccc(Cl)cc2)C(O)(C(F)(F)C(F)(F)C(F)(F)F)C1 (centres unmarked) [Example 140]
[1]
  logP: logP = 5.20^a)

## CC(C)(C)C1=NN(C(=S)Nc2ccc(Cl)cc2)C(O)(C(F)F)C1 (centres unmarked) [Example 142]
[1]
  logP: logP = 4.50^a)

## CC(C)(C)C1=NN(C(=O)Nc2ccc(Cl)cc2)C(O)(C(F)F)C1 (centres unmarked) [Example 144]
[1]
  logP: logP = 3.72^a)
